Measured values from ChEMBL document CHEMBL3297661, “1-Substituted-5-[(3,5-dinitrobenzyl)sulfanyl]-1H-tetrazoles and their isosteric analogs: A new class of selective antitubercular agents active against drug-susceptible and multidrug-resistant mycobacteria” (Eur J Med Chem, 2014).
≈ marks a conversion by molar mass, not a printed value.

Legend:
[1] = system: Pichia kudriavzevii; test: Antifungal activity against Candida krusei E28 after 48 hrs by broth microdilution method; assay type: functional; details: E28, 48 h
[2] = system: Staphylococcus epidermidis; test: Antibacterial activity against Staphylococcus epidermidis H 6966/08 after 24 hrs by broth microdilution method; assay type: functional; details: H 6966/08, 24 h
[3] = system: Staphylococcus aureus; test: Antibacterial activity against Staphylococcus aureus ATCC 6538 after 48 hrs by broth microdilution method; assay type: functional; details: ATCC 6538, 48 h
[4] = system: Lichtheimia corymbifera; test: Antifungal activity against Absidia corymbifera 272 after 48 hrs by broth microdilution method; assay type: functional, organism-based; details: Lichtheimia corymbifera, 272, 48 h
[5] = Cytotoxicity against MDCK2 cells assessed as cell viability at 30 uM after 48 hrs by MTT assay; assay type: cell-based, Canis lupus familiaris, MDCK-II; details: dog, read-out: Activity
[6] = system: Staphylococcus aureus; test: Antibacterial activity against methicillin-resistant Staphylococcus aureus H 5996/08 after 24 hrs by broth microdilution method; assay type: functional; details: H 5996/08, 24 h
[7] = Cytotoxicity against human HuH7 cells assessed as reduction in cell viability after 48 hrs by MTT assay; assay type: cell-based; details: Huh-7, 48 h
[8] = Cytotoxicity against MDCK2 cells assessed as reduction in cell viability after 48 hrs by MTT assay; assay type: cell-based; details: Canis lupus familiaris, MDCK-II
[9] = system: Candida tropicalis; test: Antifungal activity against Candida tropicalis 156 after 24 hrs by broth microdilution method; assay type: functional; details: Candida tropicalis, 156, 24 h
[10] = system: Klebsiella pneumoniae; test: Antibacterial activity against extended spectrum beta-lactamase producing Klebsiella pneumoniae J 14368/08 after 48 hrs by broth microdilution method; assay type: functional; details: J 14368/08, 48 h
[11] = Cytotoxicity against human HuH7 cells assessed as cell viability at 30 uM after 48 hrs by MTT assay; assay type: cell-based, Huh-7; details: read-out: Activity
[12] = system: Trichosporon asahii; test: Antifungal activity against Trichosporon asahii 1188 after 24 hrs by broth microdilution method; assay type: functional; details: Trichosporon asahii, 1188, 24 h
[13] = system: Escherichia coli; test: Antibacterial activity against Escherichia coli ATCC 8739 after 24 hrs by broth microdilution method; assay type: functional; details: ATCC 8739, ATCC 8739, 24 h
[14] = system: HepG2; test: Cytotoxicity against human HepG2 cells assessed as reduction in cell viability after 48 hrs by MTT assay; assay type: cell-based; details: HepG2, 48 h
[15] = system: Klebsiella pneumoniae; test: Antibacterial activity against Klebsiella pneumoniae D 11750/08 after 48 hrs by broth microdilution method; assay type: functional; details: D 11750/08, 48 h
[16] = system: Enterococcus faecalis; test: Antibacterial activity against Enterococcus faecalis J 14365/08 after 48 hrs by broth microdilution method; assay type: functional; details: J 14365/08, 48 h
[17] = system: Staphylococcus aureus; test: Antibacterial activity against methicillin-resistant Staphylococcus aureus H 5996/08 after 48 hrs by broth microdilution method; assay type: functional; details: H 5996/08, 48 h
[18] = system: Mycobacterium kansasii; test: Antimycobacterial activity against Mycobacterium kansasii 6509/96 after 14 days by micromethod; assay type: functional; details: 6509/96, 336 h
[19] = system: Aspergillus fumigatus; test: Antifungal activity against Aspergillus fumigatus 231 after 24 hrs by broth microdilution method; assay type: functional, organism-based; details: Aspergillus fumigatus, 231, 24 h
[20] = Cytotoxicity against human HeLa cells assessed as cell viability at 30 uM after 48 hrs by MTT assay; assay type: cell-based; details: read-out: Activity
[21] = system: Nakaseomyces glabratus; test: Antifungal activity against Candida glabrata 20/I after 24 hrs by broth microdilution method; assay type: functional
[22] = system: Staphylococcus epidermidis; test: Antibacterial activity against Staphylococcus epidermidis H 6966/08 after 48 hrs by broth microdilution method; assay type: functional; details: H 6966/08, 48 h
[23] = system: Candida tropicalis; test: Antifungal activity against Candida tropicalis 156 after 48 hrs by broth microdilution method; assay type: functional; details: Candida tropicalis, 156, 48 h
[24] = Cytotoxicity against human HepG2 cells assessed as cell viability at 30 uM after 48 hrs by MTT assay; assay type: cell-based; details: read-out: Activity
[25] = system: Mycobacterium tuberculosis; test: Antimycobacterial activity against Mycobacterium tuberculosis CNCTC My 331/88 after 14 days by micromethod; assay type: functional; details: CNCTC My 331/88, 336 h
[26] = system: Trichophyton mentagrophytes; test: Antifungal activity against Trichophyton mentagrophytes 445 after 72 hrs by broth microdilution method; assay type: functional, organism-based; details: Trichophyton mentagrophytes, 445, 72 h
[27] = system: Mycobacterium tuberculosis; test: Antimycobacterial activity against Mycobacterium tuberculosis CNCTC My 331/88 after 21 days by micromethod; assay type: functional; details: CNCTC My 331/88, 504 h
[28] = system: HeLa; test: Cytotoxicity against human HeLa cells assessed as reduction in cell viability after 48 hrs by MTT assay; assay type: cell-based
[29] = system: Aspergillus fumigatus; test: Antifungal activity against Aspergillus fumigatus 231 after 48 hrs by broth microdilution method; assay type: functional, organism-based; details: Aspergillus fumigatus, 231, 48 h
[30] = system: Candida albicans; test: Antifungal activity against Candida albicans ATCC 44859 after 48 hrs by broth microdilution method; assay type: functional; details: ATCC 44859, 48 h
[31] = system: Lichtheimia corymbifera; test: Antifungal activity against Absidia corymbifera 272 after 24 hrs by broth microdilution method; assay type: functional, organism-based; details: Lichtheimia corymbifera, 272, 24 h
[32] = system: Mycobacterium kansasii; test: Antimycobacterial activity against Mycobacterium kansasii 6509/96 after 7 days by micromethod; assay type: functional; details: 6509/96, 168 h
[33] = system: Trichosporon asahii; test: Antifungal activity against Trichosporon asahii 1188 after 48 hrs by broth microdilution method; assay type: functional; details: Trichosporon asahii, 1188, 48 h
[34] = system: Enterococcus faecalis; test: Antibacterial activity against Enterococcus faecalis J 14365/08 after 24 hrs by broth microdilution method; assay type: functional; details: J 14365/08, 24 h
[35] = system: Pseudomonas aeruginosa; test: Antibacterial activity against Pseudomonas aeruginosa ATCC 9027 after 24 hrs by broth microdilution method; assay type: functional; details: ATCC 9027, 24 h
[36] = system: Klebsiella pneumoniae; test: Antibacterial activity against Klebsiella pneumoniae D 11750/08 after 24 hrs by broth microdilution method; assay type: functional; details: D 11750/08, 24 h
[37] = system: Mycobacterium kansasii; test: Antimycobacterial activity against Mycobacterium kansasii CNCTC My 235/80 after 21 days by micromethod; assay type: functional; details: CNCTC My 235/80, 504 h
[38] = system: Trichophyton mentagrophytes; test: Antifungal activity against Trichophyton mentagrophytes 445 after 120 hrs by broth microdilution method; assay type: functional, organism-based; details: Trichophyton mentagrophytes, 445, 120 h
[39] = system: Mycobacterium kansasii; test: Antimycobacterial activity against Mycobacterium kansasii 6509/96 after 21 days by micromethod; assay type: functional; details: 6509/96, 504 h
[40] = system: Candida albicans; test: Antifungal activity against Candida albicans ATCC 44859 after 24 hrs by broth microdilution method; assay type: functional; details: ATCC 44859, 24 h
[41] = system: Nakaseomyces glabratus; test: Antifungal activity against Candida glabrata 20/I after 48 hrs by broth microdilution method; assay type: functional
[42] = system: Staphylococcus aureus; test: Antibacterial activity against Staphylococcus aureus ATCC 6538 after 24 hrs by broth microdilution method; assay type: functional; details: ATCC 6538, 24 h
[43] = system: Escherichia coli; test: Antibacterial activity against Escherichia coli ATCC 8739 after 48 hrs by broth microdilution method; assay type: functional; details: ATCC 8739, ATCC 8739, 48 h
[44] = system: Pichia kudriavzevii; test: Antifungal activity against Candida krusei E28 after 24 hrs by broth microdilution method; assay type: functional; details: E28, 24 h
[45] = system: Mycobacterium kansasii; test: Antimycobacterial activity against Mycobacterium kansasii CNCTC My 235/80 after 14 days by micromethod; assay type: functional; details: CNCTC My 235/80, 336 h
[46] = system: Mycobacterium avium; test: Antimycobacterial activity against Mycobacterium avium CNCTC My 330/88 after 21 days by micromethod; assay type: functional; details: CNCTC My 330/88, 504 h
[47] = system: Pseudomonas aeruginosa; test: Antibacterial activity against Pseudomonas aeruginosa ATCC 9027 after 48 hrs by broth microdilution method; assay type: functional; details: ATCC 9027, 48 h
[48] = system: Mycobacterium avium; test: Antimycobacterial activity against Mycobacterium avium CNCTC My 330/88 after 14 days by micromethod; assay type: functional; details: CNCTC My 330/88, 336 h
[49] = system: Mycobacterium kansasii; test: Antimycobacterial activity against Mycobacterium kansasii CNCTC My 235/80 after 7 days by micromethod; assay type: functional; details: CNCTC My 235/80, 168 h
[50] = system: Klebsiella pneumoniae; test: Antibacterial activity against extended spectrum beta-lactamase producing Klebsiella pneumoniae J 14368/08 after 24 hrs by broth microdilution method; assay type: functional; details: J 14368/08, 24 h

Q: With O=[N+]([O-])c1cc(CSc2nnnn2Cc2ccccc2)cc([N+](=O)[O-])c1 as the molecule, how does the IC80 [1] read?
A: > 500 µM

Q: And the IC95 [2]?
A: > 500 µM

Q: And the IC95 [3]?
A: > 500 µM

Q: And the IC50 [4]?
A: > 500 µM

Q: What about the viability at 48 h, 30 µM [5] of the same molecule?
A: 87%

Q: And the IC95 [6]?
A: > 500 µM

Q: And the IC50 [7]?
A: > 30 µM

Q: What about the IC50 [8] of the same molecule?
A: > 30 µM

Q: What about the IC80 [9] of the same molecule?
A: > 500 µM

Q: And the IC95 [10]?
A: > 500 µM

Q: And the viability at 48 h, 30 µM [11]?
A: 112%

Q: What about the IC80 [12] of the same molecule?
A: > 500 µM

Q: What about the IC95 [13] of the same molecule?
A: > 500 µM

Q: What about the IC50 [14] of the same molecule?
A: > 30 µM

Q: And the IC95 [15]?
A: > 500 µM

Q: And the IC95 [16]?
A: > 500 µM

Q: What about the IC95 [17] of the same molecule?
A: > 500 µM

Q: What about the MIC [18] of the same molecule?
A: 4 µM (≈ 1.49 µg/mL)

Q: What about the IC50 [19] of the same molecule?
A: > 500 µM

Q: What about the viability at 48 h, 30 µM [20] of the same molecule?
A: 91%

Q: What about the IC80 [21] of the same molecule?
A: > 500 µM

Q: And the IC95 [22]?
A: > 500 µM

Q: What about the IC80 [23] of the same molecule?
A: > 500 µM

Q: And the viability at 48 h, 30 µM [24]?
A: 94%

Q: And the MIC [25]?
A: 1 µM (≈ 0.372 µg/mL)

Q: And the IC50 [26]?
A: > 500 µM

Q: What about the MIC [27] of the same molecule?
A: 2 µM (≈ 0.745 µg/mL)

Q: What about the IC50 [28] of the same molecule?
A: > 30 µM

Q: What about the IC50 [29] of the same molecule?
A: > 500 µM

Q: And the IC80 [30]?
A: > 500 µM

Q: What about the IC50 [31] of the same molecule?
A: > 500 µM

Q: What about the MIC [32] of the same molecule?
A: 2 µM (≈ 0.745 µg/mL)

Q: And the IC80 [33]?
A: > 500 µM

Q: And the IC95 [34]?
A: > 500 µM

Q: And the IC95 [35]?
A: > 500 µM

Q: And the IC95 [36]?
A: > 500 µM

Q: What about the MIC [37] of the same molecule?
A: 8 µM (≈ 2.98 µg/mL)

Q: What about the IC50 [38] of the same molecule?
A: > 500 µM

Q: And the MIC [39]?
A: 4 µM (≈ 1.49 µg/mL)

Q: And the IC80 [40]?
A: > 500 µM

Q: What about the IC80 [41] of the same molecule?
A: > 500 µM

Q: What about the IC95 [42] of the same molecule?
A: > 500 µM

Q: What about the IC95 [43] of the same molecule?
A: > 500 µM

Q: And the IC80 [44]?
A: > 500 µM

Q: What about the MIC [45] of the same molecule?
A: 8 µM (≈ 2.98 µg/mL)

Q: What about the MIC [46] of the same molecule?
A: 250 µM (≈ 93.1 µg/mL)

Q: And the IC95 [47]?
A: > 500 µM

Q: And the MIC [48]?
A: 250 µM (≈ 93.1 µg/mL)

Q: And the MIC [49]?
A: 2 µM (≈ 0.745 µg/mL)

Q: And the IC95 [50]?
A: > 500 µM
